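Protocol summary: plate cells (96-well), add compound at 5 concentrations, incubate 48 h, interpolate endpoints linearly. GI50 = concentration required for 50% inhibition of growth.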 Activity calls are given as the source filed them. Rule as the data show it: active = GI50 up to about 1.1 µM and inactive = higher.
Experiments:
Assay in all cases: NCI anticancer screen, dose series, 48 h
UACC-62 = test system: UACC-62
SF-295 = test system: SF-295
T47D = test system: T47D
OVCAR-4 = test system: OVCAR-4
A549 = test system: A549
COLO 205 = test system: COLO 205
MDA-N = test system: MDA-N
IGROV-1 = test system: IGROV-1
ACHN = test system: ACHN
HL-60 = test system: HL-60
HOP-92 = test system: HOP-92
SK-OV-3 = test system: SK-OV-3
SNB-19 = test system: SNB-19
BT-549 = test system: BT-549
OVCAR-8 = test system: OVCAR-8
NCI-H460 = test system: NCI-H460
DU-145 = test system: DU-145
NCI-H522 = test system: NCI-H522
NCI-H23 = test system: NCI-H23
SF-268 = test system: SF-268

Measured: GI50

CCOC(=O)N1C/C(=C\c2ccccc2)C(=O)/C(=C/c2ccccc2)C1
inactive: UACC-62 2.66 µM | SF-295 3.01 µM | T47D 3.65 µM | OVCAR-4 2.37 µM | A549 12.3 µM | COLO 205 4.7 µM | MDA-N 1.72 µM | IGROV-1 5.02 µM | ACHN 3.84 µM | HL-60 1.24 µM | HOP-92 6.56 µM | SK-OV-3 9.2 µM | SNB-19 4.72 µM | BT-549 2.3 µM | OVCAR-8 2.82 µM | NCI-H460 4 µM | DU-145 8.81 µM | NCI-H522 2.56 µM | NCI-H23 5.31 µM | SF-268 4.17 µM

Source: ChEMBL document CHEMBL1201862, “PubChem BioAssay data set” (2004)
